Source: patent publication US10328053B2 (Gilead Sciences, Inc., priority 2016, dated 2019)

What was measured:
[1] = system: pooled cryopreserved hepatocytes; test: Hepatic Stability Assay (in vitro half-life method); assay type: in vitro ADME; set-up: dose or concentration left out as unconfirmed; conditions: 37° C., 1×10^6 cells/mL, 0-6 hours, LC-MS/MS, 39.5 hours is the maximum detectable half life
Outline: (§1)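 Pooled cryopreserved hepatocytes (1×10^6 cells/mL) incubated with compound at […] test concentration, 37° C.; samples at 0, 1, 3 and 6 h quantified by LC-MS/MS. Half-life from rate of compound disappearance, scaled to predicted hepatic clearance via well-stirred model.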

[2] = system: HBV AD38 viral particles in HepG2 cell line overexpressing NTCP; test: HBV DNA Quantification Assay; assay type: cell-based; conditions: Hepatitis B virus, HepG2, 120 h, HBV-infected HepG2-NTCP cells, 5 days incubation, HBV DNA in culture supernatant (QuantiGene 2.0); geometric mean of a minimum of four determinations
Outline: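 NTCP-overexpressing HepG2 cells infected with AD38 virus at 4000 genome equivalents/cell for 4 days, then reseeded with serially diluted compound in DMEM, 2% FBS, 1% DMSO for 5 days.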

[3] = Hepatic Stability Assay (in vitro half-life method); assay type: in vitro ADME; set-up: dose or concentration left out as unconfirmed; conditions: pooled cryopreserved hepatocytes, 37° C., 1×10^6 cells/mL, 0-6 hours, LC-MS/MS, 39.5 hours is the maximum detectable half life, read-out: t½ (converted)
Outline: as §1

SMILES | t½ [1] [h] | EC50 [2] [nM] | half-life [3] [h]
Cc1c(C(=O)C(=O)N[C@H](C)C(F)(F)F)c2n(c1C(=O)Nc1ccc(F)c(Cl)c1)C(C)CC2 (single isomer, unassigned) [Example 25] | 9.1 | – | –
CNC(=O)C1(NC(=O)C(=O)c2c(C)c(C(=O)Nc3ccc(F)c(C#N)c3)n3c2CCC3)CC(F)(F)C1 [Example 35, N-(3-cyano-4-fluorophenyl)-7-(2-((3,3-difluoro-1-(methylcarbamoyl)cyclobutyl)amino)-2-oxoacetyl)-6-methyl-2,3-dihydro-1H-pyrrolizine-5-carboxamide] | 39.5 | 109 | –
CNC(=O)C1(NC(=O)C(=O)c2c(C)c(C(=O)Nc3ccc(F)c(F)c3)n3c2CCC3)CC(F)(F)C1 [Example 44, 7-(2-((3,3-difluoro-1-(methylcarbamoyl)cyclobutyl)amino)-2-oxoacetyl)-N-(3,4-difluorophenyl)-6-methyl-2,3-dihydro-1H-pyrrolizine-5-carboxamide] | 39.5 | 31 | –
Cc1c(C(=O)C(=O)NC2(c3c[nH]nn3)CC2)c2n(c1C(=O)Nc1ccnc(C(F)F)c1)[C@@H]1C[C@@H]1C2 [Example 56, (1aR,6aR)-5-(2-((1-(1H-1,2,3-triazol-4-yl)cyclopropyl)amino)-2-oxoacetyl)-N-(2-(difluoromethyl)pyridin-4-yl)-4-methyl-1,1a,6,6a-tetrahydrocyclopropa[b]pyrrolizine-3-carboxamide] | 39.5 | – | –
CNC(=O)[C@@](C)(NC(=O)C(=O)c1c(C)c(C(=O)Nc2ccc(F)c(F)c2)n2c1CCC2)C(F)(F)F [Example 137, (R)—N-(3,4-difluorophenyl)-6-methyl-7-(2-oxo-2-((1,1,1-trifluoro-2-methyl-3-(methylamino)-3-oxopropan-2-yl)amino)acetyl)-2,3-dihydro-1H-pyrrolizine-5-carboxamide] | – | 158 | 7.4
CNC(=O)[C@](C)(NC(=O)C(=O)c1c(C)c(C(=O)Nc2ccc(F)c(F)c2)n2c1CCC2)C(F)(F)F [Example 138, (S)—N-(3,4-difluorophenyl)-6-methyl-7-(2-oxo-2-((1,1,1-trifluoro-2-methyl-3-(methylamino)-3-oxopropan-2-yl)amino)acetyl)-2,3-dihydro-1H-pyrrolizine-5-carboxamide] | – | 160 | 17.9
CNC(=O)C1(NC(=O)C(=O)c2c(C)c(C(=O)Nc3ccnc(C(F)F)c3F)n3c2CCC3)CC(F)(F)C1 [Example 147, 7-(2-((3,3-difluoro-1-(methylcarbamoyl)cyclobutyl)amino)-2-oxoacetyl)-N-(2-(difluoromethyl)-3-fluoropyridin-4-yl)-6-methyl-2,3-dihydro-1H-pyrrolizine-5-carboxamide] | – | 103 | 24.8

The next lines start with results.

t½ [1] [h] | SMILES | EC50 [2] [nM] | half-life [3] [h]
2.7 | CNC(=O)C1(NC(=O)C(=O)c2c(C)c(C(=O)Nc3ccc(F)c(Cl)c3)n3c2CCC3C)CC(F)(F)C1 (single isomer, unassigned) [Example 22, N-(3-chloro-4-fluorophenyl)-7-(2-((3,3-difluoro-1-(methylcarbamoyl)cyclobutyl)amino)-2-oxoacetyl)-3,6-dimethyl-2,3-dihydro-1H-pyrrolizine-5-carboxamide] | – | –
9.6 | CNC(=O)C1(NC(=O)C(=O)c2c(C)c(C(=O)Nc3ccc(F)c(Cl)c3)n3c2CCC3C)CC(F)(F)C1 (single isomer, unassigned) [Example 23, N-(3-chloro-4-fluorophenyl)-7-(2-((3,3-difluoro-1-(methylcarbamoyl)cyclobutyl)amino)-2-oxoacetyl)-3,6-dimethyl-2,3-dihydro-1H-pyrrolizine-5-carboxamide] | – | –
39.5 | CNC(=O)C1(NC(=O)C(=O)c2c(C)c(C(=O)Nc3ccc(F)cc3)n3c2CCC3)CC(F)(F)C1 [Example 47, 7-(2-((3,3-difluoro-1-(methylcarbamoyl)cyclobutyl)amino)-2-oxoacetyl)-N-(4-fluorophenyl)-6-methyl-2,3-dihydro-1H-pyrrolizine-5-carboxamide] | – | –
39.5 | CNC(=O)C1(NC(=O)C(=O)c2c(C)c(C(=O)Nc3ccc(F)c(F)c3)n3c2C[C@@H](F)C3)CC(F)(F)C1 [Example 49, (R)-7-(2-((3,3-difluoro-1-(methylcarbamoyl)cyclobutyl)amino)-2-oxoacetyl)-N-(3,4-difluorophenyl)-2-fluoro-6-methyl-2,3-dihydro-1H-pyrrolizine-5-carboxamide] | – | –
39.5 | Cc1c(C(=O)C(=O)NC2(c3c[nH]nn3)CC2)c2n(c1C(=O)Nc1ccc(F)cc1)CCC2 [Example 70, 7-(2-((1-(1H-1,2,3-triazol-4-yl)cyclopropyl)amino)-2-oxoacetyl)-N-(4-fluorophenyl)-6-methyl-2,3-dihydro-1H-pyrrolizine-5-carboxamide] | – | –
39.5 | Cc1c(C(=O)C(=O)NC2(C)CS(=O)(=O)C2)c2n(c1C(=O)Nc1ccc(F)c(C#N)c1)[C@@H]1C[C@@H]1C2 [Example 72, (1aR,6aR)—N-(3-cyano-4-fluorophenyl)-4-methyl-5-(2-((3-methyl-1,1-dioxidothietan-3-yl)amino)-2-oxoacetyl)-1,1a,6,6a-tetrahydrocyclopropa[b]pyrrolizine-3-carboxamide] | – | –
39.5 | CNC(=O)C1(NC(=O)C(=O)c2c(C)c(C(=O)Nc3cccc(C(F)F)c3)n3c2CCC3)CC(F)(F)C1 [Example 115, 7-(2-((3,3-difluoro-1-(methylcarbamoyl)cyclobutyl)amino)-2-oxoacetyl)-N-(3-(difluoromethyl)phenyl)-6-methyl-2,3-dihydro-1H-pyrrolizine-5-carboxamide] | – | –
39.5 | CNC(=O)C1(NC(=O)C(=O)c2c(C)c(C(=O)Nc3ccc(F)c(C(F)F)c3)n3c2CCC3)CC(F)(F)C1 [Example 116, 7-(2-((3,3-difluoro-1-(methylcarbamoyl)cyclobutyl)amino)-2-oxoacetyl)-N-(3-(difluoromethyl)-4-fluorophenyl)-6-methyl-2,3-dihydro-1H-pyrrolizine-5-carboxamide] | – | –
